Data: the SangsterLogP compilation

In the case of `N#Cc1ccc(N2CCN(CCNC(=O)c3ccc(F)cc3)CC2)cc1`, the logP was 3.02.
With `COc1cccc(C(=O)NCCN2CCN(c3ccc(Cl)cn3)CC2)c1` the logP was 3.24.
In the case of `N#Cc1cccnc1N1CCN(CCNC(=O)c2ccc(F)cc2)CC1`, the logP was 2.33.
Compound `COc1cccc(C(=O)NCCN2CCN(c3ccc(Cl)cc3)CC2)c1` has a logP of 3.31.
Compound `O=C(NCCN1CCN(c2ccc(Cl)cn2)CC1)c1ccc(F)cc1` has a logP of 3.36.
Work on `O=C(NCCN1CCN(c2ccc(Cl)cc2)CC1)c1ccc(F)cc1` yielded a logP of 3.7.
`COc1cccc(C(=O)NCCN2CCN(c3ccc(C)cc3)CC2)c1` gave a logP of 2.83.
Compound `COc1cccc(C(=O)NCCN2CCN(c3ncccc3C#N)CC2)c1` has a logP of 2.47.
In the case of `Cc1ccc(N2CCN(CCNC(=O)c3ccc(F)cc3)CC2)cc1`, the logP was 2.95.
